Data reported in US20260124203A1, “CHEMICAL SYNTHETIC LETHALITY FOR ANTIMICROBIAL THERAPY” (priority 2024, published 2026).

Molecular target: T1, FolE2 (Burkholderia thailandensis, UniProt Q2T7N4)
T1 construct: fused on or other part: N-terminal 6xHis tag from pET-28b(+) (NdeI/SacI)
Assay: biochemical
Design: species or system B. thailandensis
Conditions: read-out: apparent Ki

SMILES: C=C1CC[C@H]2C(=C)CC[C@H]3C(=C)C(=O)O[C@@H]3[C@@H]12 [DHL, dehydrocostus lactone]
- Ki: 87 ± 21 µM
